Source: ChEMBL document CHEMBL3046743, “Synthesis and in vitro antimicrobial evaluation of penta-substituted pyridine derivatives bearing the quinoline nucleus” (2012)
In brackets after ≈: the same amount, converted by molar mass.

Assays:
Type in all cases: functional
Clostridium tetani = experiment: Antibacterial activity against Clostridium tetani MTCC 449 after 24 hr by broth microdilution method; conditions: MTCC 449, 24 h
Candida albicans = experiment: Antifungal activity against Candida albicans MTCC 227 after 48 hr by broth microdilution method; conditions: MTCC 227, 48 h
Streptococcus pneumoniae = experiment: Antibacterial activity against Streptococcus pneumoniae MTCC 1936 after 24 hr by broth microdilution method; conditions: MTCC 1936, 24 h
Bacillus subtilis = experiment: Antibacterial activity against Bacillus subtilis MTCC 441 after 24 hr by broth microdilution method; conditions: MTCC 441, 24 h
Salmonella typhi = experiment: Antibacterial activity against Salmonella enterica subsp. enterica serovar Typhi MTCC 98 after 24 hr by broth microdilution method; conditions: MTCC 98, 24 h
Escherichia coli = experiment: Antibacterial activity against Escherichia coli MTCC 443 after 24 hr by broth microdilution method; conditions: MTCC 443, 24 h
Aspergillus fumigatus = experiment: Antifungal activity against Aspergillus fumigatus MTCC 3008 after 48 hr by broth microdilution method; conditions: MTCC 3008, 48 h
Vibrio cholerae = experiment: Antibacterial activity against Vibrio cholerae MTCC 3906 after 24 hr by broth microdilution method; conditions: MTCC 3906, 24 h

Structure (SMILES)	MIC (Clostridium tetani) [µg/mL]	MIC (Candida albicans) [µg/mL]	MIC (Streptococcus pneumoniae) [µg/mL]	MIC (Bacillus subtilis) [µg/mL]	MIC (Salmonella typhi) [µg/mL]	MIC (Escherichia coli) [µg/mL]	MIC (Aspergillus fumigatus) [µg/mL]	MIC (Vibrio cholerae) [µg/mL]
Cc1ccc2nc(Cl)c(-c3c(C#N)c(N)nc(Sc4ccc(Cl)cc4)c3C#N)cc2c1	250 (≈ 541 µM)	500 (≈ 1080 µM)	200 (≈ 433 µM)	200 (≈ 433 µM)	100 (≈ 216 µM)	62.5 (≈ 135 µM)	500 (≈ 1080 µM)	200 (≈ 433 µM)
COc1ccc2nc(Cl)c(-c3c(C#N)c(N)nc(Sc4ccc(C)cc4)c3C#N)cc2c1	500 (≈ 1090 µM)	> 1000	500 (≈ 1090 µM)	500 (≈ 1090 µM)	500 (≈ 1090 µM)	500 (≈ 1090 µM)	> 1000	500 (≈ 1090 µM)
Cc1ccc(Sc2nc(N)c(C#N)c(-c3cc4cc(Cl)ccc4nc3Cl)c2C#N)cc1	200 (≈ 433 µM)	250 (≈ 541 µM)	250 (≈ 541 µM)	200 (≈ 433 µM)	200 (≈ 433 µM)	200 (≈ 433 µM)	500 (≈ 1080 µM)	200 (≈ 433 µM)
COc1ccc2nc(Cl)c(-c3c(C#N)c(N)nc(Sc4ccccc4)c3C#N)cc2c1	200 (≈ 451 µM)	1000 (≈ 2250 µM)	250 (≈ 563 µM)	250 (≈ 563 µM)	500 (≈ 1130 µM)	500 (≈ 1130 µM)	1000 (≈ 2250 µM)	500 (≈ 1130 µM)
COc1ccc2nc(Cl)c(-c3c(C#N)c(N)nc(Sc4ccc(Cl)cc4)c3C#N)cc2c1	200 (≈ 418 µM)	1000 (≈ 2090 µM)	250 (≈ 523 µM)	250 (≈ 523 µM)	200 (≈ 418 µM)	200 (≈ 418 µM)	> 1000	200 (≈ 418 µM)
CC1(C)S[C@@H]2[C@H](NC(=O)[C@H](N)c3ccccc3)C(=O)N2[C@H]1C(=O)O [AMPICILLIN]	250 (≈ 715 µM)	–	100 (≈ 286 µM)	250 (≈ 715 µM)	100 (≈ 286 µM)	100 (≈ 286 µM)	–	100 (≈ 286 µM)
N#Cc1c(N)nc(Sc2ccc(Cl)cc2)c(C#N)c1-c1cc2ccccc2nc1Cl	250 (≈ 558 µM)	1000 (≈ 2230 µM)	250 (≈ 558 µM)	250 (≈ 558 µM)	150 (≈ 335 µM)	100 (≈ 223 µM)	1000 (≈ 2230 µM)	250 (≈ 558 µM)
Cc1ccc(Sc2nc(N)c(C#N)c(-c3cc4ccc(C)cc4nc3Cl)c2C#N)cc1	200 (≈ 453 µM)	> 1000	200 (≈ 453 µM)	200 (≈ 453 µM)	250 (≈ 566 µM)	200 (≈ 453 µM)	> 1000	200 (≈ 453 µM)
Cc1ccc2cc(-c3c(C#N)c(N)nc(Sc4ccccc4)c3C#N)c(Cl)nc2c1	200 (≈ 467 µM)	1000 (≈ 2340 µM)	100 (≈ 234 µM)	100 (≈ 234 µM)	200 (≈ 467 µM)	100 (≈ 234 µM)	1000 (≈ 2340 µM)	250 (≈ 584 µM)
COC1=CC(=O)C[C@@H](C)[C@]12Oc1c(Cl)c(OC)cc(OC)c1C2=O [GRISEOFULVIN]	–	100 (≈ 283 µM)	–	–	–	–	500 (≈ 1420 µM)	–
N#Cc1c(N)nc(Sc2ccccc2)c(C#N)c1-c1cc2cc(Cl)ccc2nc1Cl	250 (≈ 558 µM)	250 (≈ 558 µM)	200 (≈ 446 µM)	100 (≈ 223 µM)	250 (≈ 558 µM)	200 (≈ 446 µM)	250 (≈ 558 µM)	200 (≈ 446 µM)
Cc1ccc2nc(Cl)c(-c3c(C#N)c(N)nc(Sc4ccccc4)c3C#N)cc2c1	500 (≈ 1170 µM)	> 1000	250 (≈ 584 µM)	500 (≈ 1170 µM)	200 (≈ 467 µM)	200 (≈ 467 µM)	> 1000	250 (≈ 584 µM)
Cc1ccc2cc(-c3c(C#N)c(N)nc(Sc4ccc(Cl)cc4)c3C#N)c(Cl)nc2c1	250 (≈ 541 µM)	> 1000	250 (≈ 541 µM)	250 (≈ 541 µM)	500 (≈ 1080 µM)	500 (≈ 1080 µM)	> 1000	500 (≈ 1080 µM)
N#Cc1c(N)nc(Sc2ccccc2)c(C#N)c1-c1cc2ccccc2nc1Cl	500 (≈ 1210 µM)	500 (≈ 1210 µM)	250 (≈ 604 µM)	250 (≈ 604 µM)	200 (≈ 483 µM)	200 (≈ 483 µM)	500 (≈ 1210 µM)	200 (≈ 483 µM)
N#Cc1c(N)nc(Sc2ccc(Cl)cc2)c(C#N)c1-c1cc2cc(Cl)ccc2nc1Cl	500 (≈ 1040 µM)	200 (≈ 414 µM)	500 (≈ 1040 µM)	250 (≈ 518 µM)	250 (≈ 518 µM)	250 (≈ 518 µM)	500 (≈ 1040 µM)	500 (≈ 1040 µM)
CCn1cc(C(=O)O)c(=O)c2cc(F)c(N3CCNCC3)cc21 [NORFLOXACIN]	50 (≈ 157 µM)	–	10 (≈ 31.3 µM)	100 (≈ 313 µM)	10 (≈ 31.3 µM)	10 (≈ 31.3 µM)	–	10 (≈ 31.3 µM)
Cc1ccc(Sc2nc(N)c(C#N)c(-c3cc4cc(C)ccc4nc3Cl)c2C#N)cc1	500 (≈ 1130 µM)	250 (≈ 566 µM)	100 (≈ 226 µM)	100 (≈ 226 µM)	200 (≈ 453 µM)	250 (≈ 566 µM)	500 (≈ 1130 µM)	500 (≈ 1130 µM)
Cc1ccc(Sc2nc(N)c(C#N)c(-c3cc4ccccc4nc3Cl)c2C#N)cc1	250 (≈ 584 µM)	> 1000	200 (≈ 467 µM)	250 (≈ 584 µM)	100 (≈ 234 µM)	100 (≈ 234 µM)	> 1000	62.5 (≈ 146 µM)
